# Target: T1, human capsaicin receptor (Homo sapiens, UniProt Q8NER1)
# T1 construct: pBK-CMV expression construct encoding the full length human capsaicin receptor; expressed in transfected cells
# Test: Calcium mobilization assay, determination of antagonist activity (Example 6)
# Assay type: cell-based
# Details: Table II; IC50 determined as described in Example 6
# Method in brief: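 HEK293 clonal lines stably expressing full-length human capsaicin receptor, loaded with Fluo-3 AM in KRH buffer pH 7.4, 1–2 h at 37 °C. Compounds (1–5 μM final) preincubated 0.5–6 h at room temperature, then capsaicin at its EC50 added. FLIPR/Fluoroskan calcium signal; IC50 as 50% decrease of capsaicin response.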
# T1 sequence (Q8NER1 whole entry): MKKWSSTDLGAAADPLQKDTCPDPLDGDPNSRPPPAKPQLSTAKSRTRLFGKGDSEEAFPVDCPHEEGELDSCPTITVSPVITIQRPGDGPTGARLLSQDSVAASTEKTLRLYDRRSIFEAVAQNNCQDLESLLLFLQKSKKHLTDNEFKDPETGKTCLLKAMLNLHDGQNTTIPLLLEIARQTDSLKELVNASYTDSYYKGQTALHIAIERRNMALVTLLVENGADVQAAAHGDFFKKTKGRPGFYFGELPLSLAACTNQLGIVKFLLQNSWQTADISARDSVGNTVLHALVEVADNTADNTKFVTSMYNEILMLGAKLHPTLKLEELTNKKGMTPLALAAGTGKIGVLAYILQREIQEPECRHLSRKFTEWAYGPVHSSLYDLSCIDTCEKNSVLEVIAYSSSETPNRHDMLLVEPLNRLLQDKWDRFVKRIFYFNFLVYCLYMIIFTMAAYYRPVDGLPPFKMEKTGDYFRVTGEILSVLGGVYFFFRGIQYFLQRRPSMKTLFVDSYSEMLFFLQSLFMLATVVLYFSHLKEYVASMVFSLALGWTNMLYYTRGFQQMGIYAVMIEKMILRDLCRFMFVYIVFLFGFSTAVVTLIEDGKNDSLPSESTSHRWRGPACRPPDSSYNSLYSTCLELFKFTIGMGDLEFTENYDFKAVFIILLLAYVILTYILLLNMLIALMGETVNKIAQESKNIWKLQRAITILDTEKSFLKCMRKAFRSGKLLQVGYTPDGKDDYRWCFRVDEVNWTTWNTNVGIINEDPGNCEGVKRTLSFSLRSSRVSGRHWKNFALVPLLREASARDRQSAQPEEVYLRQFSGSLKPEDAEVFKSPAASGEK
row,SMILES,IC50
1,"Cc1cccnc1N1CCN(c2cc(-c3ccc(C)c4ccccc34)nc(N3CCOCC3)n2)[C@H](C)C1 [Example 522, 4-[4-[(2R)-2-methyl-4-(3-methylpyridin-2-yl)piperazin-1-yl]-6-(4-methyl-1-naphthyl)pyrimidin-2-yl]morpholine]",≤ 1000 nM
2,"Fc1ccc(-c2nc(N3CCOCC3)nc(N3CCN(c4ccccn4)CC3)n2)cc1F [Example 424, 2-(3,4-difluorophenyl)-4-morpholin-4-yl-6-(4-pyridin-2-ylpiperazin-1-yl)-1,3,5-triazine]",≤ 1000 nM
3,"C[C@@H]1CN(c2ncccc2Cl)CCN1c1cc(-c2ccc3ccccc3c2)nc(N2CCOCC2)n1 [Example 492, 4-[4-[(2R)-4-(3-chloropyridin-2-yl)-2-methylpiperazin-1-yl]-6-(2-naphthyl)pyrimidin-2-yl]morpholine]",≤ 1000 nM
4,"CSc1cccc(-c2cc(N3CCN(c4ncccc4C)C[C@H]3C)nc(N3CCOCC3)n2)c1 [Example 537, 4-{4-[(2R)-2-methyl-4-(3-methylpyridin-2-yl)piperazin-1-yl]-6-[3-(methylthio)phenyl]pyrimidin-2-yl}morpholine]",≤ 1000 nM
5,"Fc1ccc(-c2cc(N3CCN(c4ncccc4C(F)(F)F)CC3)nc(N3CCNCC3)n2)cc1Cl [Example 546, 4-(3-chloro-4-fluorophenyl)-2-piperazin-1-yl-6-{4-[3-(trifluoromethyl)pyridin-2-yl]piperazin-1-yl}pyrimidine]",≤ 1000 nM

# Same assay, conditions: Table II; IC50 determined as described in Example 6 (antagonist activity, calcium mobilization)
row,SMILES,IC50
1,"C[C@@H]1CN(c2ncccc2Cl)CCN1c1cc(-c2ccc(F)c(Cl)c2)nc(N2CCC[C@@H]2C)n1 [Example 984, 4-(3-chloro-4-fluorophenyl)-6-[(2R)-4-(3-chloropyridin-2-yl)-2-methylpiperazin-1-yl]-2-[(2S)-2-methylpyrroiidin-1-yl]pyrimidine]",≤ 1000 nM
2,"C[C@@H]1CN(c2ncccc2F)CCN1c1cc(-c2ccc(F)c(F)c2)nc(N2CCOC[C@@H]2C)n1 [Example 1006, (3S)-4-{4-(3,4-difluorophenyl)-6-[(2R)-4-(3-fluoropyridin-2-yl)-2-methylpiperazin-1-yl]pyrimidin-2-yl}-3-methylmorpholine]",≤ 1000 nM

# Same assay, conditions: Table II; determined as described in Example 6 (antagonist activity); "*" = 1 micromolar or less
row,SMILES,IC50
1,"Cc1ccc(-c2cc(N3CCN(c4ncccc4Cl)C[C@H]3C)nc(N3CCCC3C)n2)cc1F (stereo partly drawn) [Example 803, 4-[(2R)-4-(3-chloropyridin-2-yl)-2-methylpiperazin-1-yl]-6-(3-fluoro-4-methylphenyl)-2-(2-methylpyrrolidin-1-yl)pyrimidine]",≤ 1000 nM
2,"Fc1ccc(-c2cc(N3CCN(c4ncccc4C(F)(F)F)CC3)nc(C3=CCNCC3)n2)cc1Cl [Example 864, 4-(3-chloro-4-fluorophenyl)-2-(1,2,3,6-tetrahydropyridin-4-yl)-6-{4-(3-(trifluoromethyl)pyridin-2-yl]piperazin-1-yl}pyrimidine]",≤ 1000 nM
3,"C[C@@H]1CN(c2nccnc2Cl)CCN1c1cc(-c2ccc(F)c(Cl)c2)nc(N2CCC[C@H]2C)n1 [Example 942, 4-(3-chloro-4-fluorophenyl)-6-[(2R)-4-(3-chloropyrazin-2-yl)-2-methylpiperazin-1-yl]-2-[(2R)-2-methylpyrrolidin-1-yl]pyrimidine]",≤ 1000 nM
4,"CC1CCCN1c1nc(-c2cccc(C#N)c2)cc(N2CCN(c3ncccc3Cl)C[C@H]2C)n1 (stereo in doubt) [Example 869, 3-[6-[4-(3-chloropyridin-2-yl)-2-methylpiperazin-1-yl]-2-(2-methylpyrrolidin-1-yl)pyrimidin-4-yl]benzonitrile]",≤ 1000 nM
5,"C[C@@H]1CN(c2nccnc2Cl)CCN1c1cc(-c2ccc(F)c(F)c2)nc(N2CCC[C@H]2C)n1 [Example 935, 4-[(2R)-4-(3-chloropyrazin-2-yl)-2-methylpiperazin-1-yl]-6-(3,4-difluorophenyl)-2-[(2R)-2-methylpyrrolidin-1-yl]pyrimidine]",≤ 1000 nM
6,"C[C@@H]1CN(c2ncccc2Cl)CCN1c1cc(-c2cccnc2)nc(N2CCCC2)n1 [Example 883, 4-[(2R)-4-(3-chloropyridin-2-yl)-2-methylpiperazin-1-yl]-6-pyridin-3-yl-2-pyrrolidin-1-ylpyrimidine]",≤ 1000 nM
7,"CCCN1CCN(c2nc(-c3ccc(F)c(Cl)c3)cc(N3CCN(c4ncccc4C)CC3)n2)CC1 [Example 889, 4-(3-chloro-4-fluorophenyl)-6-[4-(3-methylpyridin-2-yl)piperazin-1-yl]-2-(4-propylpiperazin-1-yl)pyrimidine]",≤ 1000 nM
8,"CCCN1CCN(c2nc(-c3ccc(F)c(F)c3)cc(N3CCN(c4ncccc4Cl)C[C@H]3C)n2)CC1 [Example 788, 4-[(2R)-4-(3-chloropyridin-2-yl)-2-methylpiperazin-1-yl]-6-(3,4-difluorophenyl)-2-(4-propylpiperazin-1-yl)pyrimidine]",≤ 1000 nM
9,"CC1CCCN1c1nc(-c2ccc(F)c(F)c2)cc(N2CCN(c3nccnc3Cl)C[C@H]2C)n1 (stereo partly shown) [Example 821, 4-[4-(3-chloropyrazin-2-yl)-2-methylpiperazin-1-yl]-6-(3,4-difluorophenyl)-2-(2-methylpyrrolidin-1-yl)pyrimidine]",≤ 1000 nM
10,Cc1cc(-c2cc(N3CCN(c4ncccc4C(F)(F)F)CC3)nc(N(C)C(C)CO)n2)ccc1F (stereo not shown) [Example 795],≤ 1000 nM
11,"Fc1ccc(-c2cc(N3CCN(c4ncccc4C(F)(F)F)CC3)nc(C3CCNCC3)n2)cc1Cl [Example 871, 4-(3-chloro-4-fluorophenyl)-2-piperidin-4-yl-6-{4-[3-(trifluoromethyl)pyridin-2-yl]piperazin-1-yl}pyrimidine]",≤ 1000 nM

# Same assay, conditions: determined as described in Example 6 (calcium mobilization, antagonist activity); Table II
row,SMILES,IC50
1,"Cc1cc(-c2cc(N3CCN(c4ncccc4Cl)C[C@H]3C)nc(N3CCCC3C)n2)ccc1F (stereo partly drawn) [Example 719, 4-[(2R)-4-(3-chloropyridin-2-yl)-2-methylpiperazin-1-yl]-6-(4-fluoro-3-methylphenyl)-2-(2-methylpyrrolidin-1-yl)pyrimidine]",≤ 1000 nM
2,"O=S(=O)(Cc1ccccc1)c1nc(-c2ccc(F)c(Cl)c2)cc(N2CCN(c3ncccc3C(F)(F)F)CC2)n1 [Example 650, 2-(benzylsulfonyl)-4-(3-chloro-4-fluorophenyl)-6-{4-[3-(trifluoromethyl)pyridin-2-yl]piperazin-1-yl}pyrimidine]",≤ 1000 nM
3,"Fc1ccc(-c2cc(N3CCN(c4ncccc4C(F)(F)F)CC3)nc(-c3ccncc3)n2)cc1Cl [Example 617, 4-(3-chloro-4-fluorophenyl)-2-pyridin-4-yl-6-{4-[3-(trifluoromethyl)pyridin-2-yl]piperazin-1-yl}pyrimidine]",≤ 1000 nM
4,"COC[C@H]1CCCN1c1nc(-c2ccc(F)c(C)c2)cc(N2CCN(c3ncccc3C(F)(F)F)C[C@H]2C)n1 [Example 761, 4-(4-fluoro-3-methylphenyl)-2-[(2R)-2-(methoxymethyl)pyrrolidin-1-yl]-6-{(2R)-2-methyl-4-[3-(trifluoromethyl)pyridin-2-yl]piperazin-1-yl}pyrimidine]",≤ 1000 nM
5,"CC1CCCCN1c1nc(-c2ccc(F)c(F)c2)cc(N2CCN(c3ncccc3Cl)C[C@H]2C)n1 (stereo partly drawn) [Example 771, 4-[(2R)-4-(3-chloropyridin-2-yl)-2-methylpiperazin-1-yl]-6-(3,4-difluorophenyl)-2-(2-methylpiperidin-1-yl)pyrimidine]",≤ 1000 nM
6,"Cn1ccnc1-c1nc(-c2ccc(F)c(Cl)c2)cc(N2CCN(c3ncccc3C(F)(F)F)CC2)n1 [Example 662, 4-(3-chloro-4-fluorophenyl)-2-(1-methyl-1H-imidazol-2-yl)-6-{4-[3-(trifluoromethyl)pyridin-2-yl]piperazin-1-yl}pyrimidine]",≤ 1000 nM
7,"N#Cc1cccnc1N1CCN(c2cc(-c3ccc(F)c(Cl)c3)nc(N3CCOCC3)n2)CC1 [Example 583, 2-{4-[6-(3-chloro-4-fluorophenyl)-2-morpholin-4-ylpyrimidin-4-yl]piperazin-1-yl}nicotinonitrile]",≤ 1000 nM
8,"COC[C@@H]1CCCN1c1nc(-c2ccc(F)c(C)c2)cc(N2CCN(c3ncccc3C(F)(F)F)C[C@H]2C)n1 [Example 760, 4-(4-fluoro-3-methylphenyl)-2-[(2S)-2-(methoxymethyl)pyrrolidin-1-yl]-6-{(2R)-2-methyl-4-[3-(trifluoromethyl)pyridin-2-yl]piperazin-1-yl}pyrimidine]",≤ 1000 nM
9,"C[C@@H]1CN(c2ncccc2Cl)CCN1c1cc(-c2ccc(F)c(Cl)c2)nc(S(=O)(=O)Cc2ccccc2)n1 [Example 723, 2-(benzylsulfonyl)-4-(3-chloro-4-fluorophenyl)-6-[(2R)-4-(3-chloropyridin-2-yl)-2-methylpiperazin-1-yl]pyrimidine]",≤ 1000 nM
10,"Cc1cc(-c2cc(N3CCN(c4ncccc4C(F)(F)F)CC3)nc(Cl)n2)ccc1F [Example 638, 2-chloro-4-(4-fluoro-3-methylphenyl)-6-{4-[3-(trifluoromethyl)pyridin-2-yl]piperazin-1-yl}pyrimidine]",≤ 1000 nM
11,"Cc1cc(-c2cc(N3CCN(c4ncccc4C(F)(F)F)C[C@H]3C)nc(N3CCCCC3C)n2)ccc1F (stereo partly drawn) [Example 770, 4-(4-fluoro-3-methylphenyl)-2-(2-methylpiperidin-1-yl)-6-{(2R)-2-methyl-4-[3-(trifluoromethyl)pyridin-2-yl]piperazin-1-yl}pyrimidine]",≤ 1000 nM
12,"CC1CC(=O)N1c1nc(-c2ccc(F)c(Cl)c2)cc(N2CCN(c3ncccc3C(F)(F)F)CC2)n1 (stereo not shown) [Example 740, 1-(4-(3-chloro-4-fluorophenyl)-6-{4-[3-(trifluoromethyl)pyridin-2-yl]piperazin-1-yl}pyrimidin-2-yl)-4-methylazetidin-2-one]",≤ 1000 nM
13,"O=C1CCN1c1nc(-c2ccc(F)c(Cl)c2)cc(N2CCN(c3ncccc3C(F)(F)F)CC2)n1 [Example 747, 1-(4-(3-chloro-4-fluorophenyl)-6-{4-(3-(trifluoromethyl)pyridin-2-yl]piperazin-1-yl}pyrimidin-2-yl)azetidin-2-one]",≤ 1000 nM

# From patent US7566712B2, “Biaryl piperazinyl-pyridine analogues” (Neurogen Corporation, priority 2003, dated 2009)
